# Source: patent US20250051266A1, “Novel GLV-Phenolamide: Biosynthesis and Function in Protecting Plants from Herbivore Attack” (Max-Planck-Gesellschaft zur Förderung der Wissenschaften …, priority 2021, published 2025)
# Entries after “also recorded” stand apart in the source; their conditions may differ.
# Tested on: Empoasca decipiens
# Experiment: In vitro Empoasca non-choice (direct feeding) assay on artificial diet
# Assay type: in vivo
# Conditions: physiologically relevant concentrations (CoP 7 μM, CP 100 μM, FP 10 μM) in 10% glucose solution
# Protocol: FIG. 18 Mortality rates of in vitro Empoasca non-choice assays (n=4, 25 Empoasca leafhoppers per replicate) in which Empoasca were fed for 6 h with either 1 μM m/z 347.19 synthesized by using NaPPO1/NaPPO2 and CP and Z3H and diluted in 10% glucose solution or with 10% glucose as control (top). Empoasca in planta choice assays (n=8) conducted with VIGS plants of EV, PPO1, PPO2 and AT1 (bottom).
# To test if CPH is responsible for Empoasca resistance, E. decipiens were fed with physiologically relevant concentrations of 1 μM (estimated from field-collected elicited leaves) of NMR-confirmed CPH in diets containing 10% glucose in vitro. […] NaAT1 expression was silenced in N. attenuata plants using VIGS, which disrupted the production of both CP and the CPH (Li et al., Proc Natl Acad Sci USA 112, E4147-4155 (2015)) (FIG. 13).
# Empoasca feeding assays: The survival rate of Empoasca feeding on artificial diet (10% 5 sucrose in water) supplemented with caffeoylputrescine (CP, 100 μM), coumaroylputrescine (CoP, 7 μM), feruloylputrescine (FP, 10 μM), or the m/z 347.19 hexenyl derivative of CP (CPH, 1 μM) was recorded every 1 h overnight. The artificial feeding devices consisted of a 50-mL Falcon tube with a 7-mm hole drilled into the conical bottom through which the leafhoppers were aspi-rated into the tube and which then was covered with Parafilm punctured with needles to create ventilation holes. The large opening of the Falcon tube was covered with a double layer of Parafilm containing the liquid diet (100 μL). The artificial feeding devices were placed upside down with the liquid diet side down on a White Light Box (STRATAGENE) to provide bottom-light illu-mination.
substance,measurement,value
N-coumaroylputrescine [CoP],changes in mortality rates of E. decipiens compared to glucose controls,no significant changes in mortality rates; also recorded: not affecting leafhopper behavior or performance
